In US12172965B2, “Drug conjugate comprising quinoline derivatives” (UNIVERSITE PARIS-SACLAY, priority 2018, dated 2024):
Where two headings read alike, the source gives them in different places. Non-standard residues stand in square brackets, D forms with d. Residues, ends and D or L forms follow the SMILES beside them. *: point of attachment. Dolaproine = CO[C@@H]([C@@H]1CCCN1)[C@@H](C)C(=O)O; Dil = CC[C@H](C)[C@H](NC)[C@@H](CC(=O)O)OC; X1 = C[C@@H](N*)[C@@H](O)c1ccccc1; NMeV = CN[C@H](C(=O)O)C(C)C

How the values were obtained:
[1] = tested on: K562R (chronic myeloid leukemia); test: Antiproliferative activity (IC50), CellTiter Glo, K562R; type: cell-based
From the text: (§1) The IC50 (as per accepted terminology) activities of the compounds according to the invention 4-((3-amino-4-methoxyphenyl)(methyl)amino) quinoline-2-carbonitrile (ICQN-1); 5-(5-((2-cyanoquinolin-4-yl)(methyl)amino)-2-methoxyphenyl)-N-hydroxypent-4-ynamide (ICQN-2); and (E)-3-(5-((2-cyanoquinolin-4-yl)(methyl)amino)-2-methoxyphenyl)-N-hydroxyacrylamide (ICQN-3) were compared with compounds of the prior art and with a commercial and clinical reference compound, in particular MMAE (monomethylauristatin E). The IC50 activities were measured on various different cancer cell lines HCT116 (colorectal tumour), A549 (non-small cell lung cancer), NCI-N87 (gastric tumour), Mia-Paca-2 (pancreatic tumour), K562R (chronic myeloid leukemia), SKOV3 (ovarian tumour), SKBr3 (breast tumour, Her2 overexpression), MCF7 (breast tumour) and MDA-MB231 (breast tumour).
(§2) The cancer cell lines were obtained from the American Culture Collection (ATCC, Rockville, MD) or from the German collection of microorganisms and cell cultures of the Leibniz Institute (DSMZ, Braunschweig-Germany) or from the European collection of cell cultures (ECACC, England). The cancer cell lines were cultured according to the supplier's instructions.
(§3) The A549 lung carcinoma cells, K562R myeloid leukemia cells, and the NCI-N87 gastric carcinoma cells were cultured in Gibco Roswell Park Memorial Institute (RPMI) 1640 medium supplemented with 10% foetal calf serum (FCS) and 1% glutamine. The Mia-Paca2 carcinoma cells were cultured in Gibco Dulbecco's Modified Eagle Medium (DMEM) supplemented with 10% foetal calf serum (FCS) and 1% glutamine.
(§4) The cells were counted using a Vi-cell XR (Beckman Coulter) and the cell viability was assessed by using 0.25% trypan blue dye exclusion assay. The cells were tested for the presence of mycoplasmas prior to the experiments with the Mycoplasma PCR detection kit (Applied Biological Materials Inc., Canada) according to the manufacturer's instructions, and only mycoplasma-free cells were used for the study. The cell lines were maintained at 37° C. in a humidified atmosphere containing 5% CO2.
(§5) After 24 hours of culturing, the cells were treated with the tested compounds at 10 different final concentrations. Each concentration was obtained from serial dilutions in culture medium starting from the stock solution. The control cells were treated with the carrier. The experiments were carried out in triplicate.
(§6) The measurements were performed after 72 hours of treatment using the CellTiter Glo assay (Promega) which makes it possible to measure through bioluminescence (quantification of adenosine triphosphate—ATP) the number of living cells, by using a PolarStar Omega microplate reader (BMG-Labtech).
(§7) The dose-response curves were plotted with the Graph Prism software application and the IC50 values were calculated using the Graph Prism software based on polynomial curves (four or five parameter logistic equations).
The K562R (chronic myeloid leukemia) cells have an MDR profile that allows them to be resistant to several chemotherapeutic compounds including the reference compound MMAE.

[2] = tested on: MDA-MB231 (breast tumour); test: Antiproliferative activity (IC50), CellTiter Glo, MDA-MB231; type: cell-based; settings: free, unconjugated, 72 hours of treatment, read-out: MDA-MB231 CI50
From the text: as §1, §2
(§8) The breast adenocarcinoma cells MDA-MB231 and MCF7 were cultured in Gibco RPMI 1640 culture medium supplemented with 10% foetal calf serum (FCS) and 1% glutamine.
as §4, §5, §6, §7

[3] = tested on: HCT116 (colorectal tumour); test: Antiproliferative activity (IC50), CellTiter Glo, HCT116; type: cell-based, human; settings: free, unconjugated; 72 hours of treatment; read-out: HCT116 IC50
From the text: as §1, §2
(§9) The HCT-116 human colorectal carcinoma, SK-BR3 breast carcinoma, and SK-OV-3 ovarian carcinoma cells were cultured in Gibco McCoy's 5A medium supplemented with 10% foetal calf serum (FCS) and 1% glutamine.
as §4, §5, §6, §7

MCF7 (breast tumour) = test: Antiproliferative activity (IC50), CellTiter Glo, MCF7; type: cell-based; settings: free, unconjugated, 72 hours of treatment, read-out: MCF7 CI50
From the text: as §1, §2, §8, §4, §5, §6, §7

NCI-N87 (gastric tumour) = test: Antiproliferative activity (IC50), CellTiter Glo, NCI-N87; type: cell-based
From the text: as §1, §2, §3, §4, §5, §6, §7

[4] = tested on: A549 (non-small cell lung cancer); test: Antiproliferative activity (IC50), CellTiter Glo, A549; type: cell-based; settings: free, unconjugated; 72 hours of treatment; read-out: A549 IC50
From the text: as §1, §2, §3, §4, §5, §6, §7

[5] = tested on: SKBr3 (breast tumour, Her2 overexpression); test: Antiproliferative activity (IC50), CellTiter Glo, SKBr3; type: cell-based, human
From the text: as §1, §2, §9, §4, §5, §6, §7

[6] = tested on: Mia-Paca-2 (pancreatic tumour); test: Antiproliferative activity (IC50), CellTiter Glo, Mia-Paca-2; type: cell-based
From the text: as §1, §2, §3, §4, §5, §6, §7

SKOV3 (ovarian tumour) = test: Antiproliferative activity (IC50), CellTiter Glo, SKOV3; type: cell-based, human
From the text: as §1, §2, §9, §4, §5, §6, §7

cell line HCT116 = settings: molecules 4f/4j and 4g/4k of Alami et al. J. Med. Chem. 2019; cited from earlier work
[7] = Homo sapiens, NCI-N87, free, unconjugated, 72 hours of treatment, read-out: NIC-N87 IC50
[8] = Homo sapiens, SK-BR-3, free, unconjugated, 72 hours of treatment, read-out: SKBr3 IC50
[9] = Homo sapiens, MIA PaCa-2, free, unconjugated, 72 hours of treatment, read-out: Mia-Paca-2 IC50
[10] = Homo sapiens, SK-OV-3, free, unconjugated, 72 hours of treatment, read-out: SKOV3 IC50
[11] = Homo sapiens, K-562R, free, unconjugated, 72 hours of treatment, read-out: K562R IC50

For `C=C(c1ccc(OC)c(N)c1)c1cc(C)nc2ccccc12` [ICQO-1, reference compound], the IC50 ([1]; Homo sapiens, K-562R, resistant cancer cells, MDR profile, read-out: K562R (PgP+) IC50) was 1.98 nM and the “Ratio vs MMAE, K562R (PgP+)” value ([1]; resistant cancer cells, MDR profile) was 17.

With `CC[C@H](C)[C@@H]([C@@H](CC(=O)N1CCC[C@H]1[C@H](OC)[C@@H](C)C(=O)N[C@H](C)[C@@H](O)c1ccccc1)OC)N(C)C(=O)[C@@H](NC(=O)[C@@H](NC)C(C)C)C(C)C` [MMAE, monomethylauristatin E, reference compound] (H-[NMeV]V[Dil][Dolaproine]-X1) the IC50 [2] was 1.25 nM, the IC50 [3] was 1.52 nM and the IC50 (MCF7 (breast tumour)) was 0.58 nM. It also gave an IC50 (NCI-N87 (gastric tumour); free, unconjugated, 72 hours of treatment, read-out: NIC-N87 IC50) of 6.58 nM, an IC50 [4] of 4.12 nM and an IC50 ([5]; free, unconjugated, 72 hours of treatment, read-out: SKBr3 IC50) of 0.06 nM. It also gave an IC50 ([6]; free, unconjugated, 72 hours of treatment, read-out: Mia-Paca-2 IC50) of 3.02 nM, an IC50 (SKOV3 (ovarian tumour); free, unconjugated, 72 hours of treatment, read-out: SKOV3 IC50) of 0.08 nM and an IC50 ([1]; free, unconjugated, 72 hours of treatment, read-out: K562R IC50) of 19.7 nM. The IC50 ([1]; resistant cancer cells, MDR profile, read-out: K562R (PgP+) IC50) was 35 nM.

For `C=C(c1ccc2c(c1)c1ccccc1n2C)c1cc(C)nc2ccccc12`, the IC50 (cell line HCT116) is given as 2 nM.

With `CCOc1ccc(N(C)c2cc(C#N)nc3ccccc23)cc1N` [ICQN-2, 4-((3-amino-4-ethoxyphenyl)(methyl)amino)quinoline-2-carbonitrile] the IC50 (NCI-N87 (gastric tumour); [7]) was 0.93 nM, the IC50 (NCI-N87 (gastric tumour); Homo sapiens, NCI-N87, nM given only in VB118 cells, read-out: NCI-N87 (antiproliferative activity, Table 6)) was 0.93 nM and the IC50 [5, 8] was 0.38 nM. For the same compound, the IC50 ([5]; Homo sapiens, SK-BR-3, nM given only in VB118 cells, read-out: SKBR3 (antiproliferative activity, Table 6)) was 0.38 nM, the IC50 [6, 9] was 0.29 nM and the IC50 ([6]; Homo sapiens, MIA PaCa-2, nM given only in VB118 cells, read-out: Mia-Paca-2 (antiproliferative activity, Table 6)) was 0.29 nM. For the same compound, the IC50 (SKOV3 (ovarian tumour); [10]) was 0.59 nM, the IC50 (SKOV3 (ovarian tumour); Homo sapiens, SK-OV-3, nM given only in VB118 cells, read-out: SKOV-3 (antiproliferative activity, Table 6)) was 0.59 nM and the IC50 [1, 11] was 0.36 nM. The IC50 ([1]; Homo sapiens, K-562R, nM given only in VB118 cells, read-out: K562R (antiproliferative activity, Table 6)) was 0.36 nM.

With `COc1ccc(N(C)c2cc(C#N)nc3ccccc23)cc1/C=C/C(=O)NO` [ICQN-3, (E)-3-(5-((2-cyanoquinolin-4-yl)(methyl)amino)-2-methoxyphenyl)-N-hydroxyacrylamide] the IC50 ([2]; Homo sapiens, MDA-MB-231) was 0.44 nM, the IC50 (MCF7 (breast tumour); Homo sapiens, MCF7) was 0.78 nM and the IC50 (NCI-N87 (gastric tumour); [7]) was 0.1 nM. For the same compound, the IC50 [5, 8] was 1.78 nM, the IC50 [6, 9] was 0.94 nM and the IC50 (SKOV3 (ovarian tumour); [10]) was 2.64 nM. It also gave an IC50 [1, 11] of 0.56 nM.
